Source: patent EP0785211A1, “New substituted 19-nor-pregnane derivatives” (LABORATOIRE THERAMEX, priority 1996, dated 1997)
Where two headings read alike, the source gives them in different places. Marks after values point to notes of the source that are not given here.

Tests used:
[1] = target: T1, human T47-D cell progesterone receptor (Homo sapiens, UniProt P06401); assay: Relative binding affinity to human T47-D cell progesterone receptor (competition against [3H]-ORG 2058); conditions: for RBA: relative binding affinity, nomegestrol acetate as reference = 100%
T1 construct: Human PR are readily available in high amounts from the T47-D cell line in culture; endogenous in cells; host or cells: T47-D human breast cancer cell line
T1 sequence (P06401 1-933): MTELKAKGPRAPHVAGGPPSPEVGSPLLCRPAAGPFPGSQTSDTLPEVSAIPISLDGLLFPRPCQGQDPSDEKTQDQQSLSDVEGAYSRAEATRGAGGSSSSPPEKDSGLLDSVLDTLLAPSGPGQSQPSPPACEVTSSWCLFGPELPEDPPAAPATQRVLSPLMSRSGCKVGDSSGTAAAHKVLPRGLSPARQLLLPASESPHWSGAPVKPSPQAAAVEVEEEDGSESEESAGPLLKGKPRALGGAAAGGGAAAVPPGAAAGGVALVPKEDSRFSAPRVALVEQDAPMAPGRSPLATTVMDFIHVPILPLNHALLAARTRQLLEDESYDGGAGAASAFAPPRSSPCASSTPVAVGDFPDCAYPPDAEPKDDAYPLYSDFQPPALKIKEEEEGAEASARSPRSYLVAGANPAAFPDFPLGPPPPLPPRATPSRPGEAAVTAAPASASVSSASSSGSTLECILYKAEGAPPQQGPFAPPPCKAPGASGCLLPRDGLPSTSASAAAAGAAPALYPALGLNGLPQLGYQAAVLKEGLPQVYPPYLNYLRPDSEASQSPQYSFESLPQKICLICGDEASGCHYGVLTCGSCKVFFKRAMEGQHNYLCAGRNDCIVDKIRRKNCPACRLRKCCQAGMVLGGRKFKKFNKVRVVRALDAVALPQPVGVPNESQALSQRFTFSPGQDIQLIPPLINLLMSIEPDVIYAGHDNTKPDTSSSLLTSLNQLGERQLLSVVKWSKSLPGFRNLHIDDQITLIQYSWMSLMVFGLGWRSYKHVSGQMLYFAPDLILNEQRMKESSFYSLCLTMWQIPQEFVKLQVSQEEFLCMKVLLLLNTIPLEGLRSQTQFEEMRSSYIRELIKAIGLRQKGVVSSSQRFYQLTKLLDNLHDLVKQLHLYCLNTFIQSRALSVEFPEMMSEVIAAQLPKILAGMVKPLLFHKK
Method: Relative binding affinities (RBA) for the human T47-D cell PR are determined as previously described (J. Botella, et al., J. Steroid Biochem. Molec. Biol., 1994, 50 : 41-47) using [^3H]-ORG 2058 as the labelled specific ligand (G. Fleischmann et al., Biochim. Biophys. Acta, 1978, 540 : 500-517) and nomegestrol acetate as the non-radioactive reference progestin. Competitive incubations were performed against 2 nM of [^3H]-ORG 2058 for 3 hours at 4°C with six different concentrations of non-labelled steroid, chosen between 4 and 256 nM following a 1/2^n dilution scheme. Displacement curves were fitted for each experiment, and the concentration inhibiting 50% of the specific binding of [^3H]-ORG 2058 was calculated for each curve (IC50).

[2] = system: uterus of estrogen-primed immature female rabbits; assay: Clauberg-McPhail test by oral administration (endometrial transformation, "dentelle"); format: in vivo, rabbit; conditions: for Relative activity: relative to nomegestrol acetate = 100%; for ED50: total dose giving mean McPhail grade equal to 2, maximal administered dose 0.75 mg
From the text: The progestative activity of the compounds of formula (I) can be evaluated in two specific experimental models : the affinity for the progesterone receptor (PR) in vitro, and the endometrial tranformation of the rabbit uterus in vivo.
One specific pharmacological test has been standardized in vivo for the detection and quantitation of pseudogestagenic activity since the mid-30's : it is based on the property of the uterus of estrogen-primed immature female rabbits to respond to very slight amounts of progestin by a typical endometrial transformation into a densely packed and interlaced epithelial network called "dentelle". The original test schedule, which includes 6 days of estrogen priming (total subcutaneous dose of 30 µg/rabbit of estradiol benzoate) followed by 5 days of progestative treatment, was designed as early as 1930 by C. Clauberg, Zentr. Gynäkol. 1930, 54 : 2757-2770. The semi-quantitative scale used to grade the intensity of the microscopical appearance of the "dentelle" was set up by M.K. McPhail, J. Physiol (London), 1934, 83, 145-156. This overall Clauberg-McPhail procedure has been extensively used to screen steroids for putative progestative activity in vivo and is still part of the basic hormonal profile of any new progestin such as norgestimate (A. Phillips et al., Contraception, 1987, 36, 181-192) or desogestrel (J. Van der Vies et al.,Arzneim. Forsch./Drug Res. 1983, 33, 231-236).
The progestative potency is inversely related to the dose needed to induce a half-maximal stimulation of the "dentelle", i.e. to record a mean McPhail grade equal to 2. This ED50 is deduced for the dose-response curve and expressed in total dose/rabbit/5 days. All compounds were tested for activity only following oral administration.

[3] = system: immature castrated male rats; assay: Residual androgenic activity: hypertrophy of ventral prostate and seminal vesicles after 10 daily administrations; format: in vivo, rat; conditions: for Seminal Vesicle / Ventral Prostate: mean ± s.e.m. of 8 animals; for androgenic potential (activity on the growth of male accessory sex organs): result in words, up to 20 mg/animal/day
From the text: The residual androgenic potential is an important feature to evaluate for any new progestin, because it is highly predictive of androgenic side-effects in women. One pharmacological model of androgenic activity has been standardized to screen steroids or related compounds in immature castrated male rats, using the hypertrophy of the ventral prostate and seminal vesicles as the endpoint, following 10 daily administrations (R.I. Dorfman, in Methods in Hormone Research, volume 2, LONDON, Academic Press, 1962 : 275-313; A.G. Hilgar et D.J. Hummel, Androgenic and Myogenic Endocrine Bioassay Data, edited by the U.S. Department of Health, Education and Welfare, […].C., 1964).
Medroxyprogesterone acetate is a 6α-methylpregnene derivative which, besides its main progestative activity, is well-known for its weak androgenic properties (M. Tausk et J. de Visser, In International Encyclopedia of Pharmacology and Therapeutics, Section 48 : Progesterone, Progestational Drugs and Antifertility Agents, volume II, OXFORD, Pergamon Press, 1972 : 35-216); it was therefore chosen as a reference compound in the testing for residual androgenic activity of test examples according to the invention.
The compounds of examples 2 and 7 were tested for residual androgenic properties in the immature castrated male rat model by oral administration (PO), in comparison with medroxyprogesterone acetate, in two different experiments (ventral prostate and seminal vesical hypertrophy), as described above; testosterone was used as a standard androgenic agent by subcutaneous injection (SC).

[4] = Table 3 experiment, SC, 0,05 mg/animal/day
[5] = Table 4 experiment, SC, 0,05 mg/animal/day

| Structure (SMILES) | IC50 [1] [nM] | RBA [1] [%] | Relative activity [2] [%] | ED50 [2] | also measured |
| --- | --- | --- | --- | --- | --- |
| CC(=O)O[C@]1(C(C)=O)C[C@@H](C)[C@H]2[C@@H]3C=C(C)C4=CC(=O)CC[C@@H]4[C@H]3CC[C@@]21C [Example 1, 17α-acetoxy-6,15β-dimethyl-3,20-dioxo-19-nor-pregna-4,6-diene] | 38 ± 10.3 | 43 | < 18 | > 0.750 mg/rabbit/5 days | – |
| CC(=O)O[C@]1(C(C)=O)C[C@@H](C)[C@H]2[C@@H]3C[C@H](C)C4=CC(=O)CC[C@@H]4[C@H]3CC[C@@]21C [Example 2, 17α-acetoxy-6α,15β-dimethyl-3,20-dioxo-19-nor-pregna-4-ene] | 28.8 ± 5.6 | 57 | 165 | 0.080 mg/rabbit/5 days | Seminal Vesicle ([3]; Table 3 experiment, PO, 20 mg/animal/day, castrated controls 10.4 ± 0.4): 12.1 ± 0.7 ns mg; Ventral Prostate ([3]; Table 3 experiment, PO, 20 mg/animal/day, castrated controls 14.6 ± 1.4): 13.0 ± 1.1 ns mg; androgenic potential (activity on the growth of male accessory sex organs) ([3]; PO): totally devoid of any activity on the growth of male accessory sex organs |
| CC(=O)O[C@]1(C(C)=O)[C@H]2C[C@H]2[C@H]2[C@@H]3C=C(C)C4=CC(=O)CC[C@@H]4[C@H]3CC[C@@]21C [Example 6, 17α-acetoxy-6-methyl-15β,16β-methylene-3,20-dioxo-19-nor-pregna-4,6-diene] | 21.1 ± 6 | 78 | < 18 | > 0.750 mg/rabbit/5 days | – |
| CC(=O)O[C@]1(C(C)=O)[C@H]2C[C@H]2[C@H]2[C@@H]3C[C@H](C)C4=CC(=O)CC[C@@H]4[C@H]3CC[C@@]21C [Example 7, 17α-acetoxy-6α-methyl-15β,16β-methylene-3,20-dioxo-19-nor-pregna-4-ene] | 19.7 ± 3 | 83 | 54 | 0.245 mg/rabbit/5 days | Ventral Prostate ([3]; Table 4 experiment, PO, 20 mg/animal/day, castrated controls 12.0 ± 0.9): 16.5 ± 0.9 mg; Seminal Vesicle ([3]; Table 4 experiment, PO, 20 mg/animal/day, castrated controls 12.3 ± 0.7): 13.9 ± 0.8 ns mg; androgenic potential (activity on the growth of male accessory sex organs) ([3]; PO): very limited androgenic potential |
| CCO[C@]1(C(C)=O)[C@H]2C[C@H]2[C@H]2[C@@H]3C[C@H](C)C4=CC(=O)CC[C@@H]4[C@H]3CC[C@@]21C [Example 8, 17α-ethoxy-15β,16β-methylene-6α-methyl-3,20-dioxo-19-nor-pregna-4-ene] | – | 78 | 99 | 0.133 mg/rabbit/5 days | IC50 ([1]; against 2 nM [3H]-ORG 2058, 3 hours at 4°C, mean ± s.e.m.): 21.1 ± 6 nM |
| CCO[C@]1(C(C)=O)[C@H]2C[C@H]2[C@H]2[C@@H]3C=C(C)C4=CC(=O)CC[C@@H]4[C@H]3CC[C@@]21C [Example 9, 17α-ethoxy-15β,16β-methylene-6-methyl-20-oxo-19-nor-pregna-4,6-diene] | 32.3 ± 5.3 | 51 | – | – | – |
| CC(=O)OC1(C(C)=O)C2CC2C2C3C(C)C(C)C4=CC(=O)CCC4C3CCC21C (stereo not drawn) [Example 10, 17α-acetoxy-6α,7α-dimethyl-15β,16β-methylene-3,20-dioxo-19-nor-pregna-4-ene] | – | – | 22 | 0.600 mg/rabbit/5 days | – |
| CC(=O)O[C@]1(C(C)=O)CC[C@H]2[C@@H]3[C@H](C)[C@H](C)C4=CC(=O)CC[C@@H]4[C@H]3CC[C@@]21C [Example 11, 17α-acetoxy-6α,7α-dimethyl-3,20-dioxo-19-nor-pregna-4-ene] | 25.5 ± 5.3 | 64 | 132 | 0.100 mg/rabbit/5 days | – |
| CC(=O)O[C@]1(C(C)=O)CC[C@H]2[C@@H]3C=C(C)C4=CC(=O)CC[C@@H]4[C@H]3CC[C@@]21C [Nomegestrol acetate, reference compound] | – | 100 | 100 | 0.132 ± 0.013^(a) (0.108/0.150/0.138) mg/rabbit/5 days | IC50 ([1]; against 2 nM [3H]-ORG 2058, 3 hours at 4°C, mean ± s.e.m., read-out: IC50): 16.4 ± 1.3 nM |
| C[C@]12CC[C@H]3[C@@H](CCC4=CC(=O)CC[C@@]43C)[C@@H]1CC[C@@H]2O [Testosterone, reference compound] | – | – | – | – | Seminal Vesicle [3, 4]: 85.9 ± 6.8 mg; Ventral Prostate [3, 4]: 85.1 ± 5.9 mg; Seminal Vesicle [3, 5]: 90.3 ± 6.3 mg; Ventral Prostate [3, 5]: 90.4 ± 4.4 mg |
